According to PubChem BioAssay AID2060891 (Molecular Pharmacology Branch, DTP, NCI, 2025):

Tested on: K98450-129-R-PDC complex spheroid growth, percent test/control
Assay: Anticancer human tumor K98450-129-R-PDC patient-derived colon adenocarcinoma cell line growth inhibition [RAS]
Details: for IC50: curve of first compound; for viability, T/C: stronger effect = lower value
From the text: RAS pathway inhibitors in Combinations in Complex Spheroids
A high-throughput screen of multi-cell type tumor spheroids was designed to identify active combinations of RAS pathway inhibitors and targeted small molecules. Complex spheroids include a stromal component modeled by human endothelial cells (HUVEC) and fibroblasts modeled by human mesenchymal stem cells (MSCs). The concentration ranges selected for each drug and investigational agent were based upon clinically achievable concentrations if the clinical Cmax of the agent was known.
Compounds. The drugs and investigational agents: abemaciclib (NSC768073), cobimetinib (NSC768068), divarasib (GDC6063, NSC841802), docetaxel (NSC628503), GDC-1971 (RLY-1971, NSC841576), gemcitabine (NSC613327), inavolisib (NSC800729), ipatasertib (NSC767898), KB-0742 (NSC834161), MRTX-1133 (NSC836407), osimertinib (NSC779217), RMC-4630 (NSC839698), RMC-6236 (NSC851965), RMC-6291 (NSC852671), Ro-3306 (NSC812927), sapanisertib (NSC764658), SN-38 (NSC673596), staurosporine (NSC755774), SY5609 (NSC837396), and tovorafenib (DAY101, NSC766906), were obtained from the National Cancer Institute (NCI) Developmental Therapeutics Program Chemical Repository. The FDA-approved anticancer drug set is available from the NCI Developmental Therapeutics Program. […] The stock solutions were prepared in dimethyl sulfoxide (DMSO, Sigma-Aldrich, St. Louis, MO, cat. D2650) at 800-fold the tested concentration and stored at -70 degrees C prior to their use. All drugs and investigational agents were tested over a range starting from a high concentration at or near the clinical Cmax and decreasing in half-log increments. If the clinical Cmax for an agent had not been determined, the highest concentration tested was 10 microM.
Cell Culture. All cells were maintained in an incubator at 37 degrees C and 5% CO2 with 95% humidity. The PDC lines were cultured according to standard operating procedures established by the NCI PDMR. All PDCs were thawed and cultured in Matrigel-coated flasks prepared with a working solution of 1X Ham's F-12 nutrient mix, without supplementation (Invitrogen, Waltham, MA, cat. 11765054), 100 U/mL penicillin-streptomycin (Invitrogen, cat. 15140122), and 2.5% Matrigel (Corning Inc., Corning, NY, cat. 354248) for the first three passages. The 362531-283-R-J2-PDC and 782815-120-R-J1-PDC lines were cultured in 6C/Colon 1B media, which includes advanced DMEM/F-12 (Thermo Fisher Scientific, cat. 12634028), 10 mM HEPES (Thermo Fisher Scientific, cat. 15630080), 1X GlutaMAX supplement (Thermo Fisher Scientific, cat. 35050061), 0.1 mg/mL primocin (InvivoGen, San Diego, CA, cat. ant-pm-2), 10% defined fetal bovine serum, heat inactivated (HyClone Laboratories Inc., Logan, UT, cat. SH30070.03HI), 50% L-WRN conditioned media (ATCC, cat. CRL-3276), 1.25 mM N-Acetyl-L-cysteine (Sigma-Aldrich, cat. A9165), 10 mM nicotinamide (Sigma-Aldrich, cat. N0636), 1X B-27 supplement (Thermo Fisher Scientific, cat. 17504044), 1X N-2 supplement (Thermo Fisher Scientific, cat. 17502048), 50 ng/mL human EGF (Thermo Fisher Scientific, cat. PHG0311), and 10 microM Y-27632 dihydrochloride (Tocris Bioscience, cat. 1254). The K12877-001-R-J1-PDC line was cultured in 6I media, which includes all 6C/Colon 1B media plus 10 ng/mL human FGF-10 (PeproTech, cat. 100-26), 1 ng/mL human FGF-2 (PeproTech, cat. 100-18B), 1 µM prostaglandin E2 (Tocris Bioscience, cat. 2296), […] hydrocortisone (Sigma-Aldrich, cat. H4001), and […] bovine insulin (Sigma-Aldrich, cat. I6634). The K86415-001-R-J1-PDC line was cultured in 6D media, which includes all 6C/Colon 1B media components minus the L-WRN conditioned media. The 485176-168-R4-J1-PDC was cultured in PANC media, which includes all 6C/Colon 1B media plus 100 ng/mL human FGF-10 (PeproTech, cat. 100-26), 500 nM SB-431542 (Selleckchem, cat. S1067), and 10 nM gastrin (Tocris Bioscience, cat. 3006). […]

[1] = second compound 0.0316 µM, first compound 0.0316 µM
[2] = second compound 0.0316 µM, first compound 0.1 µM
[3] = second compound 0.0316 µM, first compound 0.316 µM
[4] = second compound 0.0316 µM, first compound 1 µM
[5] = second compound 0.0316 µM, first compound 3.16 µM
[6] = second compound 0.0316 µM, first compound 10 µM
[7] = second compound 0.1 µM, first compound 0.0316 µM
[8] = second compound 0.1 µM, first compound 0.1 µM
[9] = second compound 0.1 µM, first compound 0.316 µM
[10] = second compound 0.1 µM, first compound 1 µM
[11] = second compound 0.1 µM, first compound 3.16 µM
[12] = second compound 0.1 µM, first compound 10 µM
[13] = second compound 0.316 µM, first compound 0.0316 µM
[14] = second compound 0.316 µM, first compound 0.1 µM
[15] = second compound 0.316 µM, first compound 0.316 µM
[16] = second compound 0.316 µM, first compound 1 µM
[17] = second compound 0.316 µM, first compound 3.16 µM
[18] = second compound 0.316 µM, first compound 10 µM
[19] = second compound 1 µM, first compound 0.0316 µM
[20] = second compound 1 µM, first compound 0.1 µM
[21] = second compound 1 µM, first compound 0.316 µM
[22] = second compound 1 µM, first compound 1 µM
[23] = second compound 1 µM, first compound 3.16 µM
[24] = second compound 1 µM, first compound 10 µM
[25] = second compound 3.16 µM, first compound 0.0316 µM
[26] = second compound 3.16 µM, first compound 0.1 µM
[27] = second compound 3.16 µM, first compound 0.316 µM
[28] = second compound 3.16 µM, first compound 1 µM
[29] = second compound 3.16 µM, first compound 3.16 µM
[30] = second compound 3.16 µM, first compound 10 µM
[31] = second compound 10 µM, first compound 0.0316 µM
[32] = second compound 10 µM, first compound 0.1 µM
[33] = second compound 10 µM, first compound 0.316 µM
[34] = second compound 10 µM, first compound 1 µM
[35] = second compound 10 µM, first compound 3.16 µM
[36] = second compound 10 µM, first compound 10 µM
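Further: spheroids exposed to agents for seven days before the viability readout.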
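Wherever viability, T/C is given: luminescence used as a proxy for viable cell amount.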

With `CC1(O)CCCC1n1c(=O)c(C(F)F)cc2cnc(NC3CCN(S(C)(=O)=O)CC3)nc21` (stereo unspecified) + C#Cc1c(F)ccc2cc(O)cc(-c3ncc4c(N5CC6CCC(C5)N6)nc(OCC56CCCN5CC(F)C6)nc4c3F)c12 the IC50 (second compound 0.0316 µM) was > 10 µM, the IC50 (second compound 0.1 µM) was > 10 µM and the IC50 (second compound 0.316 µM) was > 10 µM. The IC50 (second compound 1 µM) was > 10 µM, the IC50 (second compound 3.16 µM) was > 10 µM and the IC50 (second compound 10 µM) was > 10 µM. The viability, T/C [1] was 105%, the viability, T/C [2] was 101% and the viability, T/C [3] was 91.3%. It also gave a viability, T/C [4] of 78.3%, a viability, T/C [5] of 64.2% and a viability, T/C [6] of 59.3%. The viability, T/C [7] was 108%, the viability, T/C [8] was 101% and the viability, T/C [9] was 91.7%. It also gave a viability, T/C [10] of 77.8%, a viability, T/C [11] of 65.8% and a viability, T/C [12] of 60.5%. The viability, T/C [13] was 106%, the viability, T/C [14] was 99.5% and the viability, T/C [15] was 92.4%. It also gave a viability, T/C [16] of 78.8%, a viability, T/C [17] of 65.5% and a viability, T/C [18] of 60.5%. The viability, T/C [19] was 104%, the viability, T/C [20] was 103% and the viability, T/C [21] was 89.3%. For the same compound, the viability, T/C [22] was 68.8%, the viability, T/C [23] was 58.8% and the viability, T/C [24] was 55.3%. For the same compound, the viability, T/C [25] was 90.9%, the viability, T/C [26] was 94.2% and the viability, T/C [27] was 83.5%. For the same compound, the viability, T/C [28] was 73.7%, the viability, T/C [29] was 63.8% and the viability, T/C [30] was 57.3%. It also gave a viability, T/C [31] of 89.8%, a viability, T/C [32] of 85.6% and a viability, T/C [33] of 80%. For the same compound, the viability, T/C [34] was 67.4%, the viability, T/C [35] was 57.4% and the viability, T/C [36] was 51%.
For `CCC(CC)c1cc(NC2CCC(N)C2)n2nccc2n1` (stereo unspecified) + C#Cc1c(F)ccc2cc(O)cc(-c3ncc4c(N5CC6CCC(C5)N6)nc(OCC56CCCN5CC(F)C6)nc4c3F)c12, the IC50 (second compound 0.0316 µM) was 6.08 µM, the IC50 (second compound 0.1 µM) was 5.51 µM and the IC50 (second compound 0.316 µM) was 6.22 µM. It also gave an IC50 (second compound 1 µM) of 5.71 µM, an IC50 (second compound 3.16 µM) of 5.43 µM and an IC50 (second compound 10 µM) of 4.67 µM. The viability, T/C [1] was 99.8%, the viability, T/C [2] was 102% and the viability, T/C [3] was 103%. The viability, T/C [4] was 106%, the viability, T/C [5] was 93.7% and the viability, T/C [6] was 16.3%. The viability, T/C [7] was 105%, the viability, T/C [8] was 108% and the viability, T/C [9] was 102%. The viability, T/C [10] was 98.3%, the viability, T/C [11] was 81.7% and the viability, T/C [12] was 16.9%. For the same compound, the viability, T/C [13] was 105%, the viability, T/C [14] was 117% and the viability, T/C [15] was 108%. The viability, T/C [16] was 97.7%, the viability, T/C [17] was 94.8% and the viability, T/C [18] was 20%. The viability, T/C [19] was 104%, the viability, T/C [20] was 99.8% and the viability, T/C [21] was 99.4%. It also gave a viability, T/C [22] of 101%, a viability, T/C [23] of 82.4% and a viability, T/C [24] of 19.1%. It also gave a viability, T/C [25] of 91.7%, a viability, T/C [26] of 97.1% and a viability, T/C [27] of 94.9%. For the same compound, the viability, T/C [28] was 84.7%, the viability, T/C [29] was 79.1% and the viability, T/C [30] was 18.9%. It also gave a viability, T/C [31] of 84.2%, a viability, T/C [32] of 90.2% and a viability, T/C [33] of 88.2%. The viability, T/C [34] was 89.4%, the viability, T/C [35] was 68.5% and the viability, T/C [36] was 14.1%.
`CCN1CCN(Cc2ccc(Nc3ncc(F)c(-c4cc(F)c5nc(C)n(C(C)C)c5c4)n3)nc2)CC1` + C#Cc1c(F)ccc2cc(O)cc(-c3ncc4c(N5CC6CCC(C5)N6)nc(OCC56CCCN5CC(F)C6)nc4c3F)c12 was tested, and the IC50 (second compound 0.0316 µM) was > 1 µM, the IC50 (second compound 0.1 µM) was > 1 µM and the IC50 (second compound 0.316 µM) was > 1 µM. The IC50 (second compound 1 µM) was > 1 µM, the IC50 (second compound 3.16 µM) was > 1 µM and the IC50 (second compound 10 µM) was 0.27 µM. The viability, T/C (second compound 0.0316 µM, first compound 0.00316 µM) was 110%, the viability, T/C (second compound 0.0316 µM, first compound 0.01 µM) was 105% and the viability, T/C [1] was 99%. For the same compound, the viability, T/C [2] was 92.4%, the viability, T/C [3] was 72.2% and the viability, T/C [4] was 74.4%. It also gave a viability, T/C (second compound 0.1 µM, first compound 0.00316 µM) of 109%, a viability, T/C (second compound 0.1 µM, first compound 0.01 µM) of 100% and a viability, T/C [7] of 98.4%. It also gave a viability, T/C [8] of 86.9%, a viability, T/C [9] of 74.1% and a viability, T/C [10] of 70.5%. For the same compound, the viability, T/C (second compound 0.316 µM, first compound 0.00316 µM) was 104%, the viability, T/C (second compound 0.316 µM, first compound 0.01 µM) was 106% and the viability, T/C [13] was 97.6%. For the same compound, the viability, T/C [14] was 89.6%, the viability, T/C [15] was 74.5% and the viability, T/C [16] was 67.4%. It also gave a viability, T/C (second compound 1 µM, first compound 0.00316 µM) of 107%, a viability, T/C (second compound 1 µM, first compound 0.01 µM) of 99.5% and a viability, T/C [19] of 90.1%. For the same compound, the viability, T/C [20] was 82.8%, the viability, T/C [21] was 66.5% and the viability, T/C [22] was 59.2%. It also gave a viability, T/C (second compound 3.16 µM, first compound 0.00316 µM) of 90.4%, a viability, T/C (second compound 3.16 µM, first compound 0.01 µM) of 94.6% and a viability, T/C [25] of 95.8%. The viability, T/C [26] was 75.6%, the viability, T/C [27] was 62.8% and the viability, T/C [28] was 53.6%. It also gave a viability, T/C (second compound 10 µM, first compound 0.00316 µM) of 85.7%, a viability, T/C (second compound 10 µM, first compound 0.01 µM) of 89.3% and a viability, T/C [31] of 81.6%. For the same compound, the viability, T/C [32] was 69.8%, the viability, T/C [33] was 46.9% and the viability, T/C [34] was 31.9%.
